Series [1] relates to Alternaria solani. In words: Alternaria test (tomato)/preventive. Type of series: in vivo. To be noted: 168 h, 500 ppm of active ingredient, preventive, evaluated 7 days after inoculation, read-out: efficacy. How it is done: Alternaria Test (Tomato)/Preventive Solvent: 49 parts by weight of N,N-Dimethylformamide Emulsifier: 1 part by weight of Alkylarylpolyglycolether To produce a suitable preparation of active compound, 1 part by weight of active compound is mixed with the stated amounts of solvent and emulsifier, and the concentrate is diluted with water to the desired concentration. To test for preventive activity, young plants are sprayed with the preparation of active compound at the stated rate of application. One day after this treatment, the plants are inoculated with an aqueous spore suspension of Alternaria solani. […] Then the plants are placed in an incubation cabinet at approximately 20° C. and a relative atmospheric humidity of 96%.

For series [2], the system named is Pyrenophora teres. In words: Pyrenophora test (barley)/preventive. The class given is in vivo. To be noted: 500 ppm of active ingredient, preventive, evaluated 7-9 days after inoculation, read-out: efficacy. On the procedure: (§1) Pyrenophora Test (Barley)/Preventive Solvent: 49 parts by weight of N,N-Dimethylformamide Emulsifier: 1 part by weight of Alkylarylpolyglycolether To produce a suitable preparation of active compound, 1 part by weight of active compound is mixed with the stated amounts of solvent and emulsifier, and the concentrate is diluted with water to the desired concentration. To test for preventive activity, young plants are sprayed with the preparation of active compound at the stated rate of application. One day after this treatment, the plants are inoculated with an aqueous spore suspension of Pyrenophora teres.

Series [3] deals with Sphaerotheca fuliginea. In words: Sphaerotheca test (cucumber)/preventive. The class given is in vivo. To be noted: Podosphaera fuliginea, 168 h, 500 ppm of active ingredient, preventive, evaluated 7 days after inoculation, 0% = untreated control, 100% = no disease, read-out: efficacy. How it is done: as §1, with “Sphaerotheca” for “Pyrenophora”, “(Cucumber)/Preventive” for “(Barley)/Preventive”, “Sphaerotheca fuliginea.” for “Pyrenophora teres.”

For series [4], the system named is Leptosphaeria nodorum. In words: Leptosphaeria test (wheat)/preventive. To be noted: Parastagonospora nodorum, 500 ppm of active ingredient, preventive, evaluated 7-9 days after inoculation, read-out: efficacy. The class given is in vivo. On the procedure:
as §1, with “Leptosphaeria Test (Wheat)/Preventive” for “Pyrenophora Test (Barley)/Preventive”, “Leptosphaeria Test (Wheat)/Preventive Solvent: 49” for “Pyrenophora Test (Barley)/Preventive Solvent: 49”, “sprayed with a preparation of” for “sprayed with the preparation of”, “suspension of Leptosphaeria nodorum.” for “suspension of Pyrenophora teres.”

Series [5] is described as follows: determination of the log P values by HPLC on a reverse phase column (C18), EEC-Directive 79/831 Annex V.A8. The class given is physicochemical. On the procedure: Method A Note on the determination of the log P values and mass detection: The stated log P values were determined in accordance with EEC-Directive 79/831 Annex V.A8 by HPLC (High Performance Liquid Chromatography) on a reverse phase column (C18). […] The mass detection was effected with an […] system. Method B Note on the determination of the log P values and mass detection: The stated log P values were determined in accordance with EEC-Directive 79/831 Annex V.A8 by HPLC (High Performance Liquid Chromatography) on a reverse phase column (C18). […] The mass detection was effected with the Micronass ZQ2000 mass detector from Waters. Method C Note on the determination of the log P values and mass detection: The stated log P values were determined in accordance with EEC-Directive 79/831 Annex V.A8 by UPLC (Ultra Performance Liquid Chromatography) on a reverse phase column (C18). […] The mass detection was effected with the LCT Premier or SQD mass detector from Waters.

Like-named read-outs stand apart in the source and are kept apart here.

The record followed here is US9314026B2, “Heterocyclylpyri(mi)dinylpyrazole” (Bayer Intellectual Property GmbH, priority 2011, dated 2016).

In general, chromatographic logP refers to lipophilicity estimated from chromatographic retention. With `CC(C)CC(=O)N(C(=O)CC(C)C)c1cc(-c2c(-c3ccc(F)cc3)nn3c2CCOC3C)ccn1` (stereo not shown) [Example 13, N-{4-[2-(4-fluorophenyl)-7-methyl-4,5-dihydropyrazolo[1,5-c][1,3]oxazin-3-yl]pyridin-2-yl}-3-methyl-N-(3-methylbutanoyl)butanamide], the pest or weed control at 500 ppm in series [1] stood at 78%; in series [2], 89%; in series [3] it was 93%; in series [4] it was 89%. Further, in series [5], the chromatographic logP was 5.01.
With `Fc1ccc(-c2cc3n(n2)CCC3)cc1Cl` [[VI-3], 2-(3-chloro-4-fluorophenyl)-5,6-dihydro-4H-pyrrolo[1,2-b]pyrazole], the chromatographic logP in series [5] (pH 2.3) and in series [5] (pH 2.7) was 3.07 each time.
Consider `CCC(=S)Nc1cc(-c2c(-c3ccc(F)cc3)nn3c2CCC3)ccn1` [[XI-9], N-{4-[2-(4-fluorophenyl)-5,6-dihydro-4H-pyrrolo[1,2-b]pyrazol-3-yl]pyridin-2-yl}propanethioamide], for which the chromatographic logP in series [5] (pH 2.3) was found to be 2.74.
Consider `Nc1cc(-c2c(-c3ccc(F)c(Cl)c3)nn3c2CCC3)ccn1` [[II-2], 4-[2-(3-chloro-4-fluorophenyl)-5,6-dihydro-4H-pyrrolo[1,2-b]pyrazol-3-yl]pyridin-2-amine], for which the chromatographic logP in series [5] (pH 2.3) and in series [5] (pH 2.7) was 1.28 throughout.
Turning to `Nc1cc(-c2c(-c3ccc(F)c(F)c3)nn3c2CCC3)ccn1` [[II-3], 4-[2-(3,4-difluorophenyl)-5,6-dihydro-4H-pyrrolo[1,2-b]pyrazol-3-yl]pyridin-2-amine], the chromatographic logP in series [5] (pH 2.3) and in series [5] (pH 2.7) was 1.08 in each case.
In turn, `O=C(Nc1cc(-c2c(-c3ccc(F)cc3)nn3c2CCC3)ccn1)C1CCOCC1` [[XI-27], N-{4-[2-(4-fluorophenyl)-5,6-dihydro-4H-pyrrolo[1,2-b]pyrazol-3-yl]pyridin-2-yl}tetrahydro-2H-pyran-4-carboxamide] gave a chromatographic logP in series [5] (pH 2.3) of 1.77.
In turn, `CC1(C)OB(c2c(-c3ccc(F)cc3)nn3c2CCC3)OC1(C)C` [[III-1], 2-(4-fluorophenyl)-3-(4,4,5,5-tetramethyl-1,3,2-dioxaborolan-2-yl)-5,6-dihydro-4H-pyrrolo[1,2-b]pyrazole] returned a chromatographic logP in series [5] (pH 2.7) of 3.97.
In turn, `CCC(=O)Nc1cc(-c2c(-c3ccc(F)cc3)nn3c2CCC3CC)ccn1` (stereo not shown) [[XI-16], N-{4-[6-ethyl-2-(4-fluorophenyl)-5,6-dihydro-4H-pyrrolo[1,2-b]pyrazol-3-yl]pyridin-2-yl}propanamide] displayed a chromatographic logP in series [5] (pH 2.3) of 2.3.
Still for that read-out and setting: as for `CC(=O)Nc1cc(-c2c(-c3ccc(F)cc3)nn3c2CC(C)C3)ccn1` (stereo not shown) [[XI-3], N-{4-[2-(4-fluorophenyl)-5-methyl-5,6-dihydro-4H-pyrrolo[1,2-b]pyrazol-3-yl]pyridin-2-yl}acetamide], the figure is 1.64; as for `COCC(=O)Nc1cc(-c2c(-c3ccccc3)nn3c2C(C)CC3)ccn1` (stereo not shown) [[XI-5], 2-methoxy-N-[4-(4-methyl-2-phenyl-5,6-dihydro-4H-pyrrolo[1,2-b]pyrazol-3-yl)pyridin-2-yl]acetamide], 2.22.
As for `OCCCc1cc(-c2ccc(F)cc2)n[nH]1` [[XIV-1], 3-[3-(4-fluorophenyl)-1H-pyrazol-5-yl]propan-1-ol], the chromatographic logP in series [5] (pH 2.3) was found to be 1.5; in series [5] (pH 2.7), 1.51.
As for `O=C(CC1CC1)Nc1cc(-c2c(-c3ccc(F)cc3)nn3c2CCC3)ccn1` [[XI-13], 2-cyclopropyl-N-{4-[2-(4-fluorophenyl)-5,6-dihydro-4H-pyrrolo[1,2-b]pyrazol-3-yl]pyridin-2-yl}acetamide], in series [5] (pH 2.3), the chromatographic logP amounted to 2.08.
The same measure, in the same setting: then `CCC(=O)Nc1cc(-c2c(-c3ccc(F)cc3)nn3c2CC(C)C3)ccn1` (stereo not shown) [[XI-7], N-{4-[2-(4-fluorophenyl)-5-methyl-5,6-dihydro-4H-pyrrolo[1,2-b]pyrazol-3-yl]pyridin-2-yl}propanamide], with 1.91.
Turning to `Nc1cc(-c2c(-c3ccc(F)cc3)nn3c2CCC3)ccn1` [[II-1], 4-[2-(4-fluorophenyl)-5,6-dihydro-4H-pyrrolo[1,2-b]pyrazol-3-yl]pyridin-2-amine], the chromatographic logP in series [5] (pH 2.3) and in series [5] (pH 2.7) was 1.02 each time.
As to `CC(C)C(=O)Nc1cc(-c2c(-c3ccc(F)cc3)nn3c2CCC3)ccn1` [[XI-8], N-{4-[2-(4-fluorophenyl)-5,6-dihydro-4H-pyrrolo[1,2-b]pyrazol-3-yl]pyridin-2-yl}-2-methylpropanamide], the chromatographic logP in series [5] (pH 2.3) was 1.97.
Take `OCCCc1cc(-c2ccc(F)c(Cl)c2)n[nH]1` [[XIV-3], 3-[3-(3-chloro-4-fluorophenyl)-1H-pyrazol-5-yl]propan-1-ol]: the figures for the chromatographic logP in series [5] (pH 2.3) and in series [5] (pH 2.7) were 1.97 and 1.96, respectively.
The compound `O=C(Nc1cc(-c2c(-c3ccc(F)cc3)nn3c2CCC3)ccn1)C1CC1` [[XI-4], N-{4-[2-(4-fluorophenyl)-5,6-dihydro-4H-pyrrolo[1,2-b]pyrazol-3-yl]pyridin-2-yl}cyclopropanecarboxamide] gave a chromatographic logP in series [5] (pH 2.3) of 1.73.
The compound `CC1(C)OB(c2c(-c3ccc(F)c(Cl)c3)nn3c2CCC3)OC1(C)C` [[III-3], 2-(3-chloro-4-fluorophenyl)-3-(4,4,5,5-tetramethyl-1,3,2-dioxaborolan-2-yl)-5,6-dihydro-4H-pyrrolo[1,2-b]pyrazole] showed a chromatographic logP in series [5] (pH 2.7) of 4.73.
In series [5] (pH 2.3), `CC(C)C(=O)Nc1cc(-c2c(-c3csc(Cl)c3)nn3c2CCC3)ccn1` [[XI-21], N-{4-[2-(5-chloro-3-thienyl)-5,6-dihydro-4H-pyrrolo[1,2-b]pyrazol-3-yl]pyridin-2-yl}-2-methylpropanamide] returned a chromatographic logP of 2.24.
As to `CS(=O)(=O)OCCCc1cc(-c2ccc(F)c(F)c2)n[nH]1` [[VII-3], 3-[3-(3,4-difluorophenyl)-1H-pyrazol-5-yl]propyl methanesulfonate], in series [5] (pH 2.7), the chromatographic logP is 2.17.
As for `CCC1CCc2c(-c3ccnc(NC(=O)CC4CC4)c3)c(-c3ccc(F)cc3)nn21` (stereo not shown) [[XI-26], 2-cyclopropyl-N-{4-[6-ethyl-2-(4-fluorophenyl)-5,6-dihydro-4H-pyrrolo[1,2-b]pyrazol-3-yl]pyridin-2-yl}acetamide], the chromatographic logP in series [5] (pH 2.3) was 2.81.
For `CC1CCn2nc(-c3ccccc3)c(I)c21` (stereo not shown) [[IV-4], 3-iodo-4-methyl-2-phenyl-5,6-dihydro-4H-pyrrolo[1,2-b]pyrazole], the chromatographic logP in series [5] (pH 2.3) and in series [5] (pH 2.5) was 3.56 in each case.
In series [5] (pH 2.3), `CC1CCn2nc(-c3ccccc3)c(-c3ccnc(NC(=O)CC4CC4)c3)c21` (stereo not shown) [[XI-11], 2-cyclopropyl-N-[4-(4-methyl-2-phenyl-5,6-dihydro-4H-pyrrolo[1,2-b]pyrazol-3-yl)pyridin-2-yl]acetamide] yielded a chromatographic logP of 2.32.
Same read-out and setting: then `CCC(=O)Nc1cc(-c2c(-c3ccccc3)nn3c2C(C)CC3)ccn1` (stereo not shown) [[XI-2], N-[4-(4-methyl-2-phenyl-5,6-dihydro-4H-pyrrolo[1,2-b]pyrazol-3-yl)pyridin-2-yl]propanamide], with 1.87.
Consider `CC(CCO)c1cc(-c2ccc(F)cc2)n[nH]1` (stereo not shown) [[XIV-5], 3-[3-(4-fluorophenyl)-1H-pyrazol-5-yl]butan-1-ol], for which the chromatographic logP in series [5] (pH 2.3) and in series [5] (pH 2.7) was 1.74 throughout.
